Measurements from patent US7572786B2, “Substituted 1-piperidin-3-yl-4-piperidin-4-yl-piperazine derivatives and their use as neurokinin antagonists” (Janssen Pharmaceutica, N.V., priority 2002, dated 2009).

Key:
Type in all cases: cell-based
[1] = biological target: NK1 (Homo sapiens, UniProt P25103); assay: Signal transduction (ST), intracellular Ca++ (FLIPR), NK1 antagonism; conditions: for IC50: read-out: pIC50 NK1 (converted)
Summary of the method: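 Confluent cells were loaded with 2 μM Fluo3 with probenecid for 1 h at 37°C, then preincubated with antagonist concentration ranges for 20 min at RT before agonist addition. Peak FLIPR calcium transient was taken as signal; IC50 from non-linear regression of sigmoidal curves.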

[2] = biological target: T1, NK2 (Homo sapiens, UniProt P21452); assay: Signal transduction (ST), intracellular Ca++ (FLIPR), NK2; conditions: for IC50: read-out: pIC50 NK2 (converted)
T1 sequence (P21452 1-398): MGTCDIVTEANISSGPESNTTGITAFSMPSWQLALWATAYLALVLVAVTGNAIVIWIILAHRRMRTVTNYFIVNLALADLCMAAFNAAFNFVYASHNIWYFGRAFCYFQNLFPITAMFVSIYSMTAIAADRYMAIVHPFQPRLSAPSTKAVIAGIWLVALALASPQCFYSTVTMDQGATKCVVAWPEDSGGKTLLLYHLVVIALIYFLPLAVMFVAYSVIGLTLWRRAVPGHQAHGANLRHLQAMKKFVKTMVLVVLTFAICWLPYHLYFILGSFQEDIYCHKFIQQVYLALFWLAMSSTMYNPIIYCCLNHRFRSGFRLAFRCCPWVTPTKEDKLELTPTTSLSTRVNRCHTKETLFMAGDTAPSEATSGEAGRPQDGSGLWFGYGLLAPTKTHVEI
Protocol: [The source words this procedure for another target and reports this target under the same test.] This test evaluates in vitro functional NK1 antagonistic activity. For the measurements of intracellular Ca^++ concentrations the cells were grown on 96-well (black wall/transparent bottom) plates from Costar for 2 days until they reached confluence. The cells were loaded with 2 μM Fluo3 in DMEM containing 0.1% BSA and 2.5 mM probenecid for 1 h at 37° C. […] The cells were preincubated with a concentration range of antagonists for 20 min at RT and Ca^++-signals after addition of the agonists were measured in a Fluorescence Image Plate Reader (FLIPR from Molecular Devices, Crawley, England). The peak of the Ca^++-transient was considered as the relevant signal and the mean values of corresponding wells were analysed as described below.
The sigmoidal dose response curves were analysed by computerised curve-fitting, using the GraphPad Program. […] For antagonist responses the IC50-value was calculated using non-linear regression.

[3] = biological target: T2, NK3 (Homo sapiens, UniProt P29371); assay: Signal transduction (ST), intracellular Ca++ (FLIPR), NK3; conditions: for IC50: read-out: pIC50 NK3 (converted)
T2 sequence (P29371 1-465): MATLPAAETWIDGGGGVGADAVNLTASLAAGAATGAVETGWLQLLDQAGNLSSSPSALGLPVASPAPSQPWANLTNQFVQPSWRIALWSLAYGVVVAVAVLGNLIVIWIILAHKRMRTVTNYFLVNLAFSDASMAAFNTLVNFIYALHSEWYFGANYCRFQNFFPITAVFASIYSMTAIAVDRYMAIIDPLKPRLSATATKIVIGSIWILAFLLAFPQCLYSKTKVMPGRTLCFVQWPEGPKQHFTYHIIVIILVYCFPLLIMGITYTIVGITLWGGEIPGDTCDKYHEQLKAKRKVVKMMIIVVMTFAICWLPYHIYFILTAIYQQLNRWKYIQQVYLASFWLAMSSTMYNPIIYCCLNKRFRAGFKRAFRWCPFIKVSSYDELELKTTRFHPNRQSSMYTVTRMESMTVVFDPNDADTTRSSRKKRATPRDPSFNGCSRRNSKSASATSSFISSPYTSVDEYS

Sequence of NK1 (P25103 whole entry): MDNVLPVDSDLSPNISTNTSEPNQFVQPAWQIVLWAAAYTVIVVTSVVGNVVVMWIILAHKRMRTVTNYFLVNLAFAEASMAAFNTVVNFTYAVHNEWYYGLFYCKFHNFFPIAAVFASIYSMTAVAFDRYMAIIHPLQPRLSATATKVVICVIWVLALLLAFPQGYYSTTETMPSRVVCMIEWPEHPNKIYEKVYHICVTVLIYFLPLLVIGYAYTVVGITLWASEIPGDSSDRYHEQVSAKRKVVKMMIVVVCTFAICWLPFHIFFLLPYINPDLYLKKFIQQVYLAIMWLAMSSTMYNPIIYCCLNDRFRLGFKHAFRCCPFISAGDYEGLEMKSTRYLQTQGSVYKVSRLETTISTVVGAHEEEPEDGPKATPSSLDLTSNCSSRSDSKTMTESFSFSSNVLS

Row | SMILES | IC50 [1] | IC50 [2] | IC50 [3] | pIC50 NK1 [1] | pIC50 NK2 [2] | pIC50 NK3 [3]
1 | O=C(c1cc(C(F)(F)F)cc(C(F)(F)F)c1)N1CC[C@H](N2CCN(C3CCCN(S(=O)(=O)c4csc(COCc5ccccc5)c4)C3)CC2)C[C@H]1Cc1ccccc1 (stereo partly drawn) [Compound 104] | 126 nM | 1260 nM | 316 nM | – | – | –
2 | CC(=O)OCC(c1ccccc1Cl)N1CCCC(N2CCN(C3CCN(C(=O)c4cc(C(F)(F)F)cc(C(F)(F)F)c4)C(Cc4ccccc4)C3)CC2)C1 (stereo not drawn) [Compound 124] | 398 nM | 5010 nM | 2510 nM | – | – | –

Further lines, results first:

Row | IC50 [1] | IC50 [2] | IC50 [3] | pIC50 NK1 [1] | pIC50 NK2 [2] | pIC50 NK3 [3] | SMILES
3 | 10 nM | 3980 nM | 2510 nM | – | – | – | O=C(c1sccc1CO)N1CCCC(N2CCN([C@H]3CCN(C(=O)c4cc(C(F)(F)F)cc(C(F)(F)F)c4)[C@H](Cc4ccccc4)C3)CC2)C1 (stereo partly drawn) [Compound 97]
4 | 12.6 nM | 5010 nM | 2000 nM | – | – | – | O=C(c1ccc(CCO)s1)N1CCCC(N2CCN(C3CCN(C(=O)c4cc(C(F)(F)F)cc(C(F)(F)F)c4)C(Cc4ccccc4)C3)CC2)C1 (stereo not drawn) [Compound 98]
5 | – | – | – | 6.7 | 5.2 | 5.5 | O=C(c1cc(CCOCc2ccccc2)cs1)N1CCCC(N2CCN([C@H]3CCN(C(=O)c4cc(C(F)(F)F)cc(C(F)(F)F)c4)[C@H](Cc4ccccc4)C3)CC2)C1 (stereo partly drawn) [Compound 99]
